# Results: patent US10149881B2, “Method for treating inflammatory, allergic or asthma diseases, containing paprika extracts” (priority 2010, dated 2018)
# Assays:
# Type in all cases: in vivo, mice
# IgG2a = test: Analysis of IgG2a, OVA asthma mouse model; details: FIG. 14
# Description: (§1) Meanwhile, immunoglobulin IgG2a is produced by activation of Th1 cells, and the activity of Th1 cells reduces the level of IgG1 which is increased by the activity of Th2 cells. Thus, IgG1 and IgG2a were analyzed.
# [1] = system: infiltration of immune cells; test: Immune cell infiltration, comparison with luteolin in asthma model; details: FIG. 12
# Description: In order to examine whether the asthma inhibitory effect of the paprika extract of the present invention is attributable to a combination of components or a specific component alone, the following test was carried out. Specifically, the immune cell infiltration of luteolin was examined.
# IgG1 = test: Analysis of IgG1, OVA asthma mouse model; details: blood; FIG. 11, FIG. 14
# Description: as §1
# immunoglobulin-E (IgE) = test: Measurement of blood immunoglobulin E (IgE) level, OVA asthma mouse model; details: FIG. 13
# Description: When asthma in mice is induced using OVA, the immunoglobulin-E (IgE) among the blood antibody levels of the mice increases in proportion to the severity of asthma. Based on this principle, the paprika extract obtained according to the method of Example 1 was named “sample SP526”, and the blood immunoglobulin-E (IgE) level of the mice was measured. Also, the level of immunoglobulin-E (IgE) was measured.
smiles,measurement,setting,value
O=c1cc(-c2ccc(O)c(O)c2)oc2cc(O)cc(O)c12 [luteolin],"IgG2a, index of the activation of Th1 cells",IgG2a,produced IgG2a
same,infiltration of immune cells,[1],inhibited the infiltration of immune cells
same,expression of IgG1,IgG1,not inhibited
same,effect on blood immunoglobulin-E levels,immunoglobulin-E (IgE),did not reduce
